Data: paper PMC5372986, “Diminished Antimicrobial Peptide and Antifungal Antibiotic Activities against Candida albicans in Denture Adhesive” (Antibiotics, 2017)
Bridge positions count the residues as written; N and C are the ends. Ends that are not written are not given here. Peptide text beside a SMILES is read from it.

Assays:
[1] = tested on: C. albicans ATCC 64124; test: microbe, parasite or virus in culture; details: C. albicans ATCC 64124; for Activity in gels with 1.0% denture adhesive compared with gels without: result in words, Tukey HSD, 0.05 level
Procedure: (§1) C. albicans strains ATCC 64124 and HMV4C were used and cultivated as previously described. Their identities were verified (State Hygienic Laboratory, University of Iowa Research Park, Coralville, IA, USA). These cultures were adjusted to contain 1.2–3.7 × 10^6 CFU/mL in Roswell Park Memorial Institute (RPMI) 1640 medium.
(§2) The denture adhesive used was a standard, over-the-counter gel containing poly sodium-calcium mixed partial salt, petrolatum, cellulose gum, and mineral oil and was prepared as previously described. Denture adhesive was too viscous to use directly and was diluted to 1.0% for incorporation into the radial diffusion assay.
(§3) Each agent was reconstituted in distilled water with 0.01% acetic acid for resuspension to keep the agent in solution. Two-fold dilutions were prepared.
(§4) The radial diffusion assays were performed as described with the following unique modifications. Underlay agarose gels were prepared with and without 1.0% denture adhesive in square petri dishes (Electron Microscopy Sciences, Hatfield, PA, USA). Plates without 1.0% adhesive contained 12.5 mL of 10.0 mM sodium phosphate buffer adjusted to pH 7.4, 12.5 mL of 2.0% agarose (Agarose LE, Roche Diagnostics Corporation, Indianapolis, IN, USA) in 10.0 mM sodium phosphate adjusted to pH 7.4, and 1.0 mL of C. albicans culture per plate. Plates with 1.0% adhesive contained 12.5 mL of 2.0% dental adhesive in 10.0 mM sodium phosphate adjusted to pH 7.4, 12.5 mL 2.0% agarose (Agarose LE, Roche Diagnostics Corporation, Indianapolis, IN, USA) in 10.0 mM sodium phosphate adjusted to pH 7.4, and 1.0 mL of C. albicans culture. Wells of 2.0 mm in diameter were created and filled with 5.0 µL of AMP or antifungal antibiotic dilution (n = three replications per test). A blank of 0.01% acetic acid in distilled water was also included. The plates were incubated at 37 °C for 3 h. After incubation, 10.0 mL of overlay containing 1.0% agarose in 10.0 mM phosphate buffer with 6.0% RPMI 1640, was added to each plate. The plates were incubated at 37 °C overnight. At 24 h, antimicrobial activity was determined by measuring the zone of clearance around the center of each well and extrapolating MIC as described.
(§5) When MICs fell outside the range of the assay, we considered the MIC to be equal to the highest concentration used in the assay. […] One-way fixed-effects ANOVA models were fit to the µM MIC values. Pairwise group comparisons were conducted using the method of Tukey’s Honest Significant Differences (HSD). A 0.05 level was used to determine statistically significant differences. All analyses were conducted using JMP (Version 10.0, SAS, Cary, NC, USA).

[2] = tested on: C. albicans HMV4C; test: microbe, parasite or virus in culture; details: C. albicans HMV4C; for Activity in gels with 1.0% denture adhesive compared with gels without: result in words, Tukey HSD, 0.05 level
Procedure: as §1, §2, §3, §4, §5

[3] = tested on: Candida albicans; details: broth microdilution, p < 0.05; cited from earlier work
Description: Candida species infections can cause complications for individuals with dentures, such as denture stomatitis.

[4] = in both gels with or without 1.0% denture adhesive
[5] = No Adhesive, radial diffusion, mean (standard error, n = 3)
[6] = Adhesive (1.0% denture adhesive in gel), radial diffusion, pH 7.4, 37 °C, read at 24 h, mean (standard error, n = 3)
[7] = Adhesive (1.0% denture adhesive in gel), radial diffusion, mean (standard error, n = 3)
[8] = No Adhesive, radial diffusion, pH 7.4, 37 °C, read at 24 h, mean (standard error, n = 3)
[9] = No Adhesive, radial diffusion, agarose in 10.0 mM sodium phosphate pH 7.4, 37 °C, read at 24 h, mean (standard error, n = 3)

Molecule	Minimal inhibitory concentration (MIC) [1, 4]	Activity in gels with 1.0% denture adhesive compared with gels without ([2]; radial diffusion)	Minimal inhibitory concentration (MIC) [2, 5]	Minimal inhibitory concentration (MIC) [1, 7]	Minimal inhibitory concentration (MIC) [1, 5]	Activity in gels with 1.0% denture adhesive compared with gels without ([1]; radial diffusion)	Minimal inhibitory concentration (MIC) [2, 7]	Loss of antimicrobial activity in 1.0% denture adhesive [3]	further results
C[C@H](NC(=O)[C@H](Cc1c[nH]cn1)NC(=O)[C@H](CO)NC(=O)[C@@H](N)CC(=O)O)C(=O)N[C@@H](CCCCN)C(=O)N[C@@H](CCCNC(=N)N)C(=O)N[C@@H](Cc1c[nH]cn1)C(=O)N[C@@H](Cc1c[nH]cn1)C(=O)NCC(=O)N[C@@H](Cc1ccc(O)cc1)C(=O)N[C@@H](CCCCN)C(=O)N[C@@H](CCCNC(=N)N)C(=O)N[C@@H](CCCCN)C(=O)N[C@@H](Cc1ccccc1)C(=O)N[C@@H](Cc1c[nH]cn1)C(=O)N[C@@H](CCC(=O)O)C(=O)N[C@@H](CCCCN)C(=O)N[C@@H](Cc1c[nH]cn1)C(=O)N[C@@H](Cc1c[nH]cn1)C(=O)N[C@@H](CO)C(=O)N[C@@H](Cc1c[nH]cn1)C(=O)N[C@@H](CCCNC(=N)N)C(=O)NCC(=O)N[C@@H](Cc1ccc(O)cc1)C(=O)O [Histatin 5]	> 329.0 µM	diminished activity	–	–	–	–	–	–	–
CC[C@H](C)[C@@H]1NC(=O)[C@H](CCCCN)NC(=O)[C@H]([C@@H](C)O)NC(=O)[C@H](Cc2ccccc2)NC(=O)[C@H]([C@@H](C)CC)NC(=O)[C@@H]2CCCN2C(=O)[C@@H]2CSSC[C@@H](C(=O)N[C@@H](CCCCN)C(=O)O)NC(=O)[C@@H]3CSSC[C@H](NC(=O)[C@H](CC(N)=O)NC(=O)[C@H](Cc4ccc(O)cc4)NC(=O)[C@H](Cc4c[nH]cn4)NC(=O)[C@@H](N)CC(=O)O)C(=O)N[C@@H](C(C)C)C(=O)N[C@@H](CO)C(=O)N[C@@H](CO)C(=O)NCC(=O)NCC(=O)N[C@@H](CCC(N)=O)C(=O)N[C@@H](CSSC[C@H](NC(=O)[C@H]([C@@H](C)O)NC(=O)CNC(=O)[C@H](CCC(N)=O)NC1=O)C(=O)N[C@@H](Cc1ccc(O)cc1)C(=O)N[C@@H](CCCNC(=N)N)C(=O)NCC(=O)N[C@@H](CCCCN)C(=O)N[C@@H](C)C(=O)N[C@@H](CCCCN)C(=O)N3)C(=O)N[C@@H](CC(C)C)C(=O)N[C@@H](Cc1ccc(O)cc1)C(=O)N[C@@H](CO)C(=O)N[C@@H](C)C(=O)N2 [HBD-1] (H-DHYNCVSSGGQCLYSACPIFTKIQGTCYRGKAKCCK-OH; disulfide 5-34, 12-27, 17-35 (inferred); N-terminus and C-terminus assumed)	> 254.1 µM	–	>254.1 (0.0) µM	–	–	–	–	–	Minimal inhibitory concentration (MIC) [2, 4]: > 254.1 µM
IP-10: recombinant human CXCL10 (Peprotech)	–	diminished activity	2.2 (0.0) µM	>115.7 (0.0) µM	12.0 (0.4) µM	diminished activity	>23.1 (0.0) µM	–	Minimal inhibitory concentration (MIC) [1, 6]: >1000.0 (0.0) µg/mL; Minimal inhibitory concentration (MIC) [1, 8]: 103.6 (3.2) µg/mL; Minimal inhibitory concentration (MIC) [2, 6]: >200.0 (0.0) µg/mL; Minimal inhibitory concentration (MIC) [2, 9]: 18.6 (0.3) µg/mL
N=C(NCCCCCCNC(=N)NC(=N)Nc1ccc(Cl)cc1)NC(=N)Nc1ccc(Cl)cc1.O=C(O)[C@H](O)[C@@H](O)[C@H](O)[C@H](O)CO.O=C(O)[C@H](O)[C@@H](O)[C@H](O)[C@H](O)CO [Chlorhexidine gluconate]	–	same antimicrobial activity	7.0 (0.1) µM	90.9 (3.6) µM	4.6 (0.2) µM	diminished antimicrobial activity	0.8 (0.4) µM	did not	Minimal inhibitory concentration (MIC) [1, 6]: 81.6 (3.2) µg/mL; Minimal inhibitory concentration (MIC) [1, 8]: 4.1 (0.2) µg/mL; Minimal inhibitory concentration (MIC) [2, 6]: 0.7 (0.4) µg/mL; Minimal inhibitory concentration (MIC) [2, 9]: 6.3 (0.1) µg/mL
GIINTLQKYYCRVRGGRCAVLSCLPKEEQIGKCSTRGRKCCRRKK (disulfide 11-40, 18-33, 23-41 (inferred)) [HBD-3]	–	diminished activity	–	–	–	diminished activity	–	–	–
CC[C@H](C)[C@H](NC(=O)[C@H](CCCCN)NC(=O)[C@H](CCC(=O)O)NC(=O)[C@H](CCCCN)NC(=O)[C@H](CO)NC(=O)[C@H](CCCCN)NC(=O)[C@H](CCCNC(=N)N)NC(=O)[C@H](Cc1ccccc1)NC(=O)[C@H](Cc1ccccc1)NC(=O)[C@H](CC(=O)O)NC(=O)CNC(=O)[C@H](CC(C)C)NC(=O)[C@@H](N)CC(C)C)C(=O)NCC(=O)N[C@@H](CCCCN)C(=O)N[C@@H](CCC(=O)O)C(=O)N[C@@H](Cc1ccccc1)C(=O)N[C@@H](CCCCN)C(=O)N[C@@H](CCCNC(=N)N)C(=O)N[C@H](C(=O)N[C@H](C(=O)N[C@@H](CCC(N)=O)C(=O)N[C@@H](CCCNC(=N)N)C(=O)N[C@H](C(=O)N[C@@H](CCCCN)C(=O)N[C@@H](CC(=O)O)C(=O)N[C@@H](Cc1ccccc1)C(=O)N[C@@H](CC(C)C)C(=O)N[C@@H](CCCNC(=N)N)C(=O)N[C@@H](CC(N)=O)C(=O)N[C@@H](CC(C)C)C(=O)N[C@H](C(=O)N1CCC[C@H]1C(=O)N[C@@H](CCCNC(=N)N)C(=O)N[C@H](C(=O)N[C@@H](CCC(=O)O)C(=O)N[C@@H](CO)C(=O)O)[C@@H](C)O)C(C)C)[C@@H](C)CC)C(C)C)[C@@H](C)CC [LL37]	> 222.4 µM	diminished activity	30.4 (1.0) µM	>222.4 (0.0) µM	>222.4 (0.0) µM	–	>222.4 (0.0) µM	–	–
CCCCCCCCCCCCCC[C@@H](O)[C@@H](O)[C@@H](N)CO [phytosphingosine]	–	–	–	–	–	–	–	lost antimicrobial activity	–
CCCCCCCCCCCCC/C=C/[C@@H](O)[C@@H](N)CO [sphingosine]	–	–	–	–	–	–	–	lost antimicrobial activity	–
GIGDPVTCLKSGAICHPVFCPRRYKQIGTCGLPGTKCCKKP (disulfide 8-37, 15-30, 20-38 (inferred)) [HBD-2]	–	diminished activity	–	–	–	diminished activity	–	–	–
CCCCCCCCCCCCCCC[C@@H](O)[C@@H](N)CO [dihydrosphingosine]	–	–	–	–	–	–	–	lost antimicrobial activity	–
